Data as given in ChEMBL document CHEMBL4814018, “Rationally designed TNF-α inhibitors: Identification of promising cytotoxic agents” (Bioorg Med Chem Lett, 2021).
The source made the active and inactive calls. The rule behind the calls is not given here.

Assays:
BV-2 [1] = assay: Cytotoxicity against mouse BV2 cells incubated for 48 hrs by MTT assay; type: cell-based; settings: BV-2, 48 h
BV-2 [2] = assay: Antiinflammatory activity against mouse BV2 cells assessed as decrease in LPS-induced NO production at 1 to 5 uM pretreated with compound followed by LPS stimulation incubated for 4 to 48 hrs by enzyme immunoassay; type: functional, cell-based; settings: dose 1-5 µM, time 4-48 hrs
[3] = Therapeutic index, ratio of LC50 for human Panel NCI-60 (60 carcinoma cell lines) to GI50 for human Panel NCI-60 (60 carcinoma cell lines); type: functional

SMILES	IC50 (BV-2 [1])	Activity (BV-2 [2])	TI [3]
O=C1COCCN1c1ccc(N2C(=O)C(Cl)C2c2cn(Cc3ccc(F)cc3)c3ccccc23)cc1 (centres undefined)	> 10 µM	–	–
C#CCn1cc(C2C(Cl)C(=O)N2c2ccc(N3CCOCC3=O)cc2)c2ccccc21 (centres undefined)	> 10 µM	Active	–
COc1cccc2c1C(=O)c1c(O)c3c(c(O)c1C2=O)C[C@@](O)(C(=O)CO)C[C@@H]3O[C@H]1C[C@H](N)[C@H](O)[C@H](C)O1 [DOXORUBICIN]	–	–	134
